Laboratory results from US20240116985A1, “STAPLED PEPTIDES AND METHODS THEREOF” (priority 2020, published 2024).

Molecular target: T1, full-length beta-Catenin (Uniprot ID P35222) (Homo sapiens, UniProt P35222)
T1 construct: 10 nM full-length beta-Catenin (Uniprot ID P35222)
T1 sequence (P35222 1-781): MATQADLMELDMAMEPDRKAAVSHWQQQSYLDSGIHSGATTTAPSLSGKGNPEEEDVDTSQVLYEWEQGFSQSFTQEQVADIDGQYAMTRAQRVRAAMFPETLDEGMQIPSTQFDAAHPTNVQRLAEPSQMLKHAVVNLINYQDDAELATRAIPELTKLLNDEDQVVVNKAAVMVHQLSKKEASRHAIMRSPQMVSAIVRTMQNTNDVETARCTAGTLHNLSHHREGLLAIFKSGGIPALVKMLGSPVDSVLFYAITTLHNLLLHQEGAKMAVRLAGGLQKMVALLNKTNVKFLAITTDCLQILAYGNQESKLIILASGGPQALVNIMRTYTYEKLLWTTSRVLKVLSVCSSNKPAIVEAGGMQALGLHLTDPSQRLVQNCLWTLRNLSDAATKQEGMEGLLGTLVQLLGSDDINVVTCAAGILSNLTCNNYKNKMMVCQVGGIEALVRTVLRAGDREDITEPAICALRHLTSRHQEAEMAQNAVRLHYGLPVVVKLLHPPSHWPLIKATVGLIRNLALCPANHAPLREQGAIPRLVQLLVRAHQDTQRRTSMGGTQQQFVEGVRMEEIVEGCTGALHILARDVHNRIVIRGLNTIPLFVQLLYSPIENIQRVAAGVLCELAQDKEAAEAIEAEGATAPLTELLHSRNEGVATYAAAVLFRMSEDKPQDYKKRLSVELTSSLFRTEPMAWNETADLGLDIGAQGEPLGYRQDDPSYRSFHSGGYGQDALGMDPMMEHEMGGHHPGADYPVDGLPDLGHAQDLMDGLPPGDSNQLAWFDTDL
Assay: Fluorescence polarization IC50 (beta-catenin / 5FAM-TCF4 10-53 competition)
Assay type: binding
Details: fluorescence polarization; read-out: beta-Catenin FP IC50

In the case of `CC(=O)N1CCC[C@]12CC=CCCCC1(CCCC=CCCCOC(=O)N3CC[C@@](C(=O)N[C@@H](Cc4ccccc4)C(=O)N[C@@H](Cc4csc5ccccc45)C(=O)N[C@@H](CCC(N)=O)C(N)=O)(C3)NC(=O)[C@H](CC(C)C)NC(=O)[C@H](Cc3ccccc3)NC(=O)[C@H](C)NC(=O)[C@H](CCCCNC(C)C)NC(=O)[C@H](CCO)NC(=O)[C@H](CC(=O)O)NC1=O)NC(=O)[C@H](CC1CCCCC1)NC(=O)[C@H](CC(N)=O)NC2=O` (stereo partly drawn) [I-2344, Ac-PL3-Asn-Cha-B5-Asp-Hse-iPrLys-Ala-Phe-Leu-PyrS2-Phe-BztA-Gln-NH2], the IC50 is reported as 586 nM.

`CC(=O)N1CCC[C@]12CC=CCCCC1(CCCC=CCCCOC(=O)N3CC[C@@](C(=O)N[C@@H](Cc4ccsc4)C(=O)N[C@@H](Cc4c[nH]c5ccccc45)C(=O)N[C@@H](CCC(N)=O)C(N)=O)(C3)NC(=O)[C@H](CC(N)=O)NC(=O)[C@H](Cc3ccccc3)NC(=O)[C@H](C)NC(=O)[C@H](C)NC(=O)[C@H](CC(=O)O)NC(=O)[C@H](CC(=O)O)NC1=O)NC(=O)[C@H](CC(C)(C)C)NC(=O)[C@H](CC(=O)O)NC2=O` (stereo partly drawn) [I-2175, Ac-PL3-Asp-Npg-B5-Asp-Asp-Ala-Ala-Phe-Asn-PyrS2-3Thi-Trp-Gln-NH2] was tested, and the IC50 was 19 nM.

`CC(=O)N1CCC[C@]12CC=CCCCC1(CCCC=CCCCOC(=O)N3CC[C@@](C(=O)N[C@@H](Cc4ccsc4)C(=O)N[C@@H](Cc4csc5ccccc45)C(=O)N[C@@H](CC(C)(C)C)C(N)=O)(C3)NC(=O)[C@H](CC(C)C)NC(=O)[C@H](Cc3ccccc3)NC(=O)[C@H](C)NC(=O)[C@H](CC(=O)N(C)C)NC(=O)[C@H](Cc3cccc(C(=O)O)c3)NC(=O)[C@H](CC(=O)O)NC1=O)NC(=O)[C@H](CC(C)(C)C)NC(=O)[C@H](CC(=O)O)NC2=O` (stereo partly drawn) [I-2196, Ac-PL3-Asp-Npg-B5-Asp-3COOHF-Me2Asn-Ala-Phe-Leu-PyrS2-3Thi-BztA-Npg-NH2] gave an IC50 of 41 nM.

With `CC(=O)N1CCC[C@]12CC=CCCCC1(CCCC=CCCCOC(=O)N3CC[C@@](C(=O)N[C@@H](Cc4ccccc4)C(=O)N[C@@H](Cc4csc5ccccc45)C(=O)N[C@@H](CCC(N)=O)C(N)=O)(C3)NC(=O)[C@H](CCCCNC(C)C)NC(=O)[C@H](Cc3ccccc3)NC(=O)[C@H](C)NC(=O)[C@H](CCCCNC(C)C)NC(=O)[C@H](CCC(N)=O)NC(=O)[C@H](CC(=O)O)NC1=O)NC(=O)[C@H](CC(C)(C)C)NC(=O)[C@H](CC(N)=O)NC2=O` (stereo partly drawn) [I-1653, Ac-PL3-Asn-Npg-B5-Asp-Gln-iPrLys-Ala-Phe-iPrLys-PyrS2-Phe-BztA-Gln-NH2] the IC50 was 903 nM.

`CC(=O)N1CCC[C@]12CCCCCCC1(CCCCCCCCOC(=O)N3CC[C@](C(=O)N[C@@H](Cc4ccsc4)C(=O)N[C@@H](Cc4csc5ccccc45)C(=O)N[C@@H](CCC(N)=O)C(N)=O)(C3)NC(=O)[C@H](CC(N)=O)NC(=O)[C@H](Cc3ccccc3)NC(=O)[C@H](C)NC(=O)[C@H](C)NC(=O)[C@H](CC(=O)O)NC(=O)[C@H](CC(=O)O)NC1=O)NC(=O)[C@H](CC(C)(C)C)NC(=O)[C@H](CC(=O)O)NC2=O` (stereo partly drawn) [I-2021, Ac-PL3-Asp-Npg-B5-Asp-Asp-Ala-Ala-Phe-Asn-PyrR2-3Thi-BztA-Gln-NH2] was tested, and the IC50 was 5380 nM.

With `CC(=O)N1CCC[C@]12CC=CCCCC1(CCCC=CCCCOC(=O)N3CCC(C(=O)N[C@@H](Cc4ccccc4C(F)(F)F)C(=O)N[C@@H](Cc4csc5ccccc45)C(=O)N[C@@H](C)C(N)=O)(CC3)NC(=O)[C@H](CC(C)C)NC(=O)[C@H](Cc3ccccc3)NC(=O)[C@H](C)NC(=O)[C@H](CCC(N)=O)NC(=O)[C@H](Cc3cccc(C(=O)O)c3)NC(=O)[C@H](CC(=O)O)NC1=O)NC(=O)[C@H](CC(C)(C)C)NC(=O)[C@H](CC(=O)O)NC2=O` (stereo partly drawn) [I-2585, Ac-PL3-Asp-Npg-B5-Asp-3COOHF-Gln-Ala-Phe-Leu-SPip2-2F3MeF-BztA-Ala-NH2] the IC50 was 452 nM.

For `CC(=O)N1CCC[C@]12CC=CCCCC1(CCCC=CCCCOC(=O)N3CC[C@@](C(=O)N[C@@H](Cc4ccccc4)C(=O)N[C@@H](Cc4csc5ccccc45)C(=O)N[C@@H](CCC(N)=O)C(N)=O)(C3)NC(=O)[C@H](CC(C)C)NC(=O)[C@H](Cc3ccccc3)NC(=O)[C@H](C)NC(=O)[C@H](CCCCNC(C)C)NC(=O)[C@H](Cc3cccc(C(N)=O)c3)NC(=O)[C@H](CC(=O)O)NC1=O)NC(=O)[C@H](CC1CCCCC1)NC(=O)[C@H](CC(N)=O)NC2=O` (stereo partly drawn) [I-2342, Ac-PL3-Asn-Cha-B5-Asp-3cbmf-iPrLys-Ala-Phe-Leu-PyrS2-Phe-BztA-Gln-NH2], the IC50 was 2730 nM.

`CC(=O)N1CCC[C@]12CC=CCCCC1(CCCC=CCCCOC(=O)N3CC[C@@](C(=O)N[C@@H](Cc4ccsc4)C(=O)N[C@@H](Cc4csc5ccccc45)C(=O)N[C@@H](CCC(N)=O)C(=O)N[C@H](CO)CC(C)C)(C3)NC(=O)[C@H](CC(C)C)NC(=O)[C@H](Cc3ccccc3)NC(=O)[C@H](C)NC(=O)[C@H](C)NC(=O)[C@H](CN(CC(=O)O)CC(F)(F)F)NC(=O)[C@H](CC(=O)O)NC1=O)NC(=O)[C@H](CC(C)(C)C)NC(=O)[C@H](CC(=O)O)NC2=O` (stereo partly drawn) [I-1682, Ac-PL3-Asp-Npg-B5-Asp-TfeGA-Ala-Ala-Phe-Leu-PyrS2-3Thi-BztA-Gln-Leuo1] was tested, and the IC50 was 41 nM.

In the case of `CC(=O)N1CCC[C@]12CC=CCCCC1(CCCC=CCCCOC(=O)N3CC[C@@](C(=O)N[C@@H](Cc4ccsc4)C(=O)N[C@@H](Cc4csc5ccccc45)C(=O)N[C@@H](CCC(N)=O)C(N)=O)(C3)NC(=O)[C@H](CC(C)C)NC(=O)[C@H](Cn3cc(CN4CCNCC4)nn3)NC(=O)[C@H](C)NC(=O)[C@H](C)NC(=O)[C@H](CN(CC(=O)O)CC(F)(F)F)NC(=O)[C@H](CC(=O)O)NC1=O)NC(=O)[C@H](CC(C)(C)C)NC(=O)[C@H](CC(=O)O)NC2=O` (stereo partly drawn) [I-1857, Ac-PL3-Asp-Npg-B5-Asp-TfeGA-Ala-Ala-[CH2Ppz]TriAzDap-Leu-PyrS2-3Thi-BztA-Gln-NH2], the IC50 is reported as 4030 nM.

For `CNC(=O)C[C@@H]1NC(=O)C2(CCCC=CCCCCCC[C@@](C)(C(=O)N[C@@H](Cc3ccccc3)C(=O)N[C@@H](Cc3csc4ccccc34)C(=O)N[C@@H](CCC(N)=O)C(N)=O)NC(=O)[C@H](C(C)C)NC(=O)[C@H](Cc3ccccc3)NC(=O)[C@H](C)NC(=O)[C@H](C)NC(=O)[C@H](CC(=O)O)NC1=O)CCCC=CC[C@]1(CCCN1C(C)=O)C(=O)N[C@@H](CC(=O)O)C(=O)N[C@@H](C)C(=O)N2` (stereo partly drawn) [I-540, Ac-PL3-Asp-Ala-B5-[NHMe]AsnR-Asp-Ala-Ala-Phe-Val-S8-Phe-BztA-Gln-NH2], the IC50 was 5000 nM.

`CC(=O)N1CCC[C@]12CC=CCCCC1(CCCC=CCCCOC(=O)N3CC[C@@](C(=O)N[C@@H](Cc4ccsc4)C(=O)N[C@@H](Cc4csc5ccccc45)C(=O)N[C@@H](CCC(N)=O)C(N)=O)(C3)NC(=O)[C@H](CC(N)=O)NC(=O)[C@H](Cc3ccccc3)NC(=O)[C@H](C)NC(=O)[C@H](C)NC(=O)[C@H](CC(N)=O)NC(=O)[C@H](CC(C)C)NC1=O)NC(=O)[C@H](CC(C)(C)C)NC(=O)[C@H](CC(=O)O)NC2=O` (stereo partly drawn) [I-1562, Ac-PL3-Asp-Npg-B5-Leu-Asn-Ala-Ala-Phe-Asn-PyrS2-3Thi-BztA-Gln-NH2] showed an IC50 of 5020 nM.

Work on `CC(=O)N1CCC[C@]12CCCCCCC1(CCCCCCCCOC(=O)N3CC[C@@](C(=O)N[C@@H](Cc4ccsc4)C(=O)N[C@@H](Cc4csc5ccccc45)C(=O)N[C@@H](CC(C)C)C(N)=O)(C3)NC(=O)[C@H](CC(C)C)NC(=O)[C@H](Cc3ccccc3)NC(=O)[C@H](C)NC(=O)[C@H](CCCCNC(C)C)NC(=O)[C@H](CN(CC(=O)O)CC(F)(F)F)NC(=O)[C@H](CC(=O)O)NC1=O)NC(=O)[C@H](CC(C)(C)C)NC(=O)[C@H](CC(=O)O)NC2=O` (stereo partly drawn) [I-1765, Ac-PL3-Asp-Npg-B5-Asp-TfeGA-iPrLys-Ala-Phe-Leu-PyrS2-3Thi-BztA-Leu-NH2] yielded an IC50 of 667 nM.

`CC(=O)N1CCC[C@]12CC=CCCCC1(CCCC=CCCCOC(=O)N3CC[C@@](C(=O)N[C@@H](Cc4ccsc4)C(=O)N[C@@H](Cc4csc5ccccc45)C(=O)N[C@@H](CCC(N)=O)C(N)=O)(C3)NC(=O)[C@H](Cn3cc(CN4CCS(=O)(=O)CC4)nn3)NC(=O)[C@H](Cc3ccccc3)NC(=O)[C@H](C)NC(=O)[C@H](C)NC(=O)[C@H](CN(CC(=O)O)CC(F)(F)F)NC(=O)[C@H](CC(=O)O)NC1=O)NC(=O)[C@H](CC(C)(C)C)NC(=O)[C@H](CC(=O)O)NC2=O` (stereo partly drawn) [I-1868, Ac-PL3-Asp-Npg-B5-Asp-TfeGA-Ala-Ala-Phe-[SO2MorphCH2]TriAzDap-PyrS2-3Thi-BztA-Gln-NH2] was tested, and the IC50 was 12 nM.

Molecule `CC(=O)N1CCC[C@]12CC=CCCCC1(CCCC=CCCCOC(=O)N3CC[C@@](C(=O)N[C@@H](Cc4ccsc4)C(=O)N[C@@H](Cc4csc5ccccc45)C(=O)N[C@@H](Cc4ccccc4)C(N)=O)(C3)NC(=O)[C@H](CC(N)=O)NC(=O)[C@H](Cc3ccccc3)NC(=O)[C@H](C)NC(=O)C(C)(C)NC(=O)[C@H]([C@@H](C)O)NC(=O)[C@H](CC(N)=O)NC1=O)NC(=O)[C@H](CC(C)(C)C)NC(=O)[C@H](CC(=O)O)NC2=O` (stereo partly drawn) [I-2412, Ac-PL3-Asp-Npg-B5-Asn-Thr-Aib-Ala-Phe-Asn-PyrS2-3Thi-BztA-Phe-NH2] has an IC50 of 267 nM.
